Laboratory results as given in EPA's ToxRefDB 2.

How the values were obtained:
rat [1] = conditions: Subchronic oral toxicity in rodents, sprague dawley, Feed, dose end: 13 week, group: systemic
rat [2] = conditions: Sub-acute repeat dose toxicity; wistar; Oral; Feed; dose end: 21 day; group: systemic; systemic / clinical chemistry / [other] / [other] + systemic / clinical chemistry / 5' nucleotidase / 5' nucleotidase + systemic / organ …
rat [3] = conditions: Prenatal developmental toxicity study, sprague dawley, Oral, Gavage/Intubation, dose end: 20 GD
rat [4] = conditions: Developmental neurotoxicity study; sprague dawley; Injection; Intraperitoneal; dose end: 74 PND; group: cannot be grouped; reproductive / reproductive performance / aborted / aborted + developmental / offspring survival late / [other] / [other] + systemic / in …
dog [5] = conditions: Chronic toxicity, beagle, Oral, Feed, dose end: 6 month, group: systemic
rat [6] = conditions: Subchronic oral toxicity in rodents, Feed, dose end: 90 day, group: systemic
mouse [7] = conditions: Subchronic oral toxicity in rodents, Feed, dose end: 90 day, group: systemic
mouse [8] = conditions: Carcinogenicity; other; Oral; Feed; dose end: 104 week; group: systemic; systemic / pathology microscopic / liver / vacuolization
dog [9] = conditions: Subchronic oral toxicity in nonrodent, beagle, Feed, dose end: 6 month, group: systemic, systemic / clinical chemistry / alkaline phosphatase (alp/alk) / alkaline phosphatase (alp/alk) + systemic / organ weight / liver / absolute…
rat [10] = conditions: Prenatal developmental toxicity study, other, Oral, Gavage/Intubation, dose end: 15 GD
rat [11] = conditions: Combined chronic toxicity/carcinogenicity, sprague dawley, Oral, Feed, dose end: 105 week, group: systemic
[12] = systemic / in life observation / body weight / body weight gain + systemic / in life observation / food consumption / food efficiency + …
[13] = group: developmental, developmental / developmental malformation / bone / delayed ossification + developmental / developmental malformation / bone / supernumerary…
[14] = group: maternal, reproductive / reproductive performance / postimplantation loss / postimplantation loss + reproductive / reproductive performance / …
[15] = group: maternal, systemic / clinical chemistry / [other] / [other] + systemic / organ weight / liver / absolute + systemic / organ weight / liver / relative …
[16] = systemic / clinical chemistry / alkaline phosphatase (alp/alk) / alkaline phosphatase (alp/alk) + systemic / hematology / erythrocyte (rbc) …
[17] = systemic / organ weight / liver / absolute + systemic / organ weight / liver / relative to body weight
[18] = systemic / organ weight / liver / absolute + systemic / organ weight / liver / relative to body weight + systemic / pathology microscopic / …
[19] = systemic / organ weight / liver / absolute + systemic / organ weight / liver / relative to body weight + systemic / clinical chemistry / …
[20] = group: developmental, developmental / developmental malformation / bone / absent + developmental / developmental malformation / bone / incomplete ossification + …
[21] = group: maternal, systemic / in life observation / clinical signs / convulsions + systemic / in life observation / clinical signs / fur (altered appearance…
[22] = systemic / pathology microscopic / liver / vacuolization
[23] = systemic / pathology microscopic / liver / vacuolization + systemic / organ weight / liver / absolute + systemic / organ weight / liver / …

Compound: Cn1sc2c(c1=O)CCC2 [2-Methyl-5,6-dihydro-2H-cyclopenta[d][1,2]thiazol-3(4H)-one]
- LOAEL (rat [1]; systemic / in life observation / body weight / body weight gain + systemic / in life observation / food consumption / food efficiency): 23.2 mg/kg/day
- LEL (rat [1]; [12]): 23.2 mg/kg/day
- NEL (rat [1]; [12]): 4.6 mg/kg/day
- NOAEL (rat [1]; [12]): 4.6 mg/kg/day

Compound: CCCCCCOC(=O)c1ccccc1C(=O)OCCCCCC [Dihexyl phthalate]
- LEL (rat [2]): 1000 mg/kg/day
- LOAEL (rat [2]): > 1000 mg/kg/day
- NEL (rat [2]): < 1000 mg/kg/day
- NOAEL (rat [2]): ≥ 1000 mg/kg/day
- LEL (rat [3]; [13]): 250 mg/kg/day
- LOAEL (rat [3]; [13]): 250 mg/kg/day
- NEL (rat [3]; [13]): < 250 mg/kg/day
- NOAEL (rat [3]; [13]): < 250 mg/kg/day
- LOAEL (rat [3]; [14]): > 750 mg/kg/day
- NOAEL (rat [3]; [14]): ≥ 750 mg/kg/day
- LEL (rat [3]; [15]): 250 mg/kg/day
- NEL (rat [3]; [15]): < 250 mg/kg/day

Compound: NC(=O)NO [Hydroxyurea]
- LEL (rat [4]): 2000 mg/kg/day
- LOAEL (rat [4]): > 2000 mg/kg/day
- NEL (rat [4]): < 2000 mg/kg/day
- NOAEL (rat [4]): ≥ 2000 mg/kg/day

Compound: COCC(=O)N(c1c(C)cccc1C)C(C)C(=O)OC (configuration not stated) [Metalaxyl]
- LOAEL (dog [5]; systemic / clinical chemistry / alkaline phosphatase (alp/alk) / alkaline phosphatase (alp/alk)): 30.6 mg/kg/day
- LEL (dog [5]; [16]): 30.6 mg/kg/day
- NEL (dog [5]; [16]): 7.8 mg/kg/day
- NOAEL (dog [5]; [16]): 7.8 mg/kg/day
- LEL (rat [6]; [17]): 2.5 mg/kg/day
- NEL (rat [6]; [17]): < 2.5 mg/kg/day
- LOAEL (rat [6]; [18]): > 62.5 mg/kg/day
- NOAEL (rat [6]; [18]): ≥ 62.5 mg/kg/day
- LEL (mouse [7]; [17]): 188 mg/kg/day
- NEL (mouse [7]; [17]): < 188 mg/kg/day
- LOAEL (mouse [7]; [19]): > 750 mg/kg/day
- NOAEL (mouse [7]; [19]): ≥ 750 mg/kg/day
- LEL (mouse [8]): 129 mg/kg/day
- LOAEL (mouse [8]): 129 mg/kg/day
- NEL (mouse [8]): 24.9 mg/kg/day
- NOAEL (mouse [8]): 24.9 mg/kg/day
- LEL (dog [9]): 30.6 mg/kg/day
- LOAEL (dog [9]): 30.6 mg/kg/day
- NEL (dog [9]): 7.8 mg/kg/day
- NOAEL (dog [9]): 7.8 mg/kg/day
- LEL (rat [10]; [20]): 400 mg/kg/day
- LOAEL (rat [10]; [20]): 400 mg/kg/day
- NEL (rat [10]; [20]): 250 mg/kg/day
- NOAEL (rat [10]; [20]): 250 mg/kg/day
- LEL (rat [10]; [21]): 250 mg/kg/day
- LOAEL (rat [10]; [21]): 250 mg/kg/day
- NEL (rat [10]; [21]): 50 mg/kg/day
- NOAEL (rat [10]; [21]): 50 mg/kg/day
- LEL (rat [11]; [22]): 1.88 mg/kg/day
- NEL (rat [11]; [22]): < 1.88 mg/kg/day
- LOAEL (rat [11]; [23]): 46.6 mg/kg/day
- NOAEL (rat [11]; [23]): 9.43 mg/kg/day
